Measurements as given in patent US20140135310A1, “SULPHONAMIDE DERIVATIVES OF ALICYCLIC AMINES FOR THE TREATMENT OF CENTRAL NERVOUS SYSTEM DISEASES” (Adamed Sp. z o.o., priority 2011, published 2014).

Tests used:
[1] = biological target: dopaminergic receptors D2 (Homo sapiens, UniProt P14416); assay: Radioligand binding assay, dopaminergic D2 receptors; conditions: for Ki: read-out: Inhibition constants Ki for D2 receptors, D2
Outline: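 Values derive from competition curves: percent inhibition of control specific binding was fitted by Hill non-linear regression for IC50, and Ki calculated with Cheng–Prusoff from radioligand concentration and KD (Scatchard). Bound ligand was detected by scintillation counting.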

[2] = biological target: dopaminergic receptors D3 (Homo sapiens, UniProt P35462); assay: Radioligand binding assay, dopaminergic D3 receptors; conditions: test compound 1×10^−6 M
Outline: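 Scintillation read-out. Specific = total − nonspecific (excess cold ligand). Data as % of control specific binding / % inhibition; IC50 by Hill fit; Ki = IC50/(1+L/KD), KD from Scatchard plot.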

[3] = biological target: T1, 5-HT1A receptor (rat hippocampus) (Rattus norvegicus, UniProt P19327); assay: Radioligand binding assay, serotoninergic 5-HT1A receptors; conditions: binding assay result in %, Table 5a;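 further: test compound at 1 µM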
T1 construct: hippocampus; from tissue; host or cells: rat hippocampus
T1 sequence (P19327 1-422): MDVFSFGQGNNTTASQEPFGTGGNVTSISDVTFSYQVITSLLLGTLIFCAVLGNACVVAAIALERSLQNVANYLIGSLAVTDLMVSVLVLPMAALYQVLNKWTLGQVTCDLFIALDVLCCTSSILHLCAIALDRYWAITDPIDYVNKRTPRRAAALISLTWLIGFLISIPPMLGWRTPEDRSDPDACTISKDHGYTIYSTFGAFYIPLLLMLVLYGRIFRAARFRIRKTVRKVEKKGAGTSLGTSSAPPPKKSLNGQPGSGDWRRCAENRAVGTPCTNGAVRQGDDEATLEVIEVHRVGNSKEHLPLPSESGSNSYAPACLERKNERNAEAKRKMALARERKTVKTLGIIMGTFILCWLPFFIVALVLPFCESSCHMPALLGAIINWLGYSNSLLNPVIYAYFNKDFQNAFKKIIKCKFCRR

[4] = biological target: T2, 5-HT2A receptor (Homo sapiens, UniProt P28223); assay: Radioligand binding assay, serotoninergic 5-HT2A receptors; conditions: for Ki: read-out: Inhibition constants Ki, 5-HT2A
T2 construct: purchased PerkinElmer
Outline: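 Competition curves from scintillation-counted specific binding (total minus binding with excess unlabelled ligand) were Hill-fitted to give IC50, converted to Ki via Cheng-Prusoff using Scatchard-derived Kd.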

[5] = biological target: T3, 5-HT2C receptor (Homo sapiens, UniProt P28335); assay: Radioligand binding assay, serotoninergic 5-HT2C receptors; conditions: test compound 1×10^−6 M
T3 construct: expressed in transfected cells; host or cells: HEK-293 cells
T3 sequence (P28335 33-458): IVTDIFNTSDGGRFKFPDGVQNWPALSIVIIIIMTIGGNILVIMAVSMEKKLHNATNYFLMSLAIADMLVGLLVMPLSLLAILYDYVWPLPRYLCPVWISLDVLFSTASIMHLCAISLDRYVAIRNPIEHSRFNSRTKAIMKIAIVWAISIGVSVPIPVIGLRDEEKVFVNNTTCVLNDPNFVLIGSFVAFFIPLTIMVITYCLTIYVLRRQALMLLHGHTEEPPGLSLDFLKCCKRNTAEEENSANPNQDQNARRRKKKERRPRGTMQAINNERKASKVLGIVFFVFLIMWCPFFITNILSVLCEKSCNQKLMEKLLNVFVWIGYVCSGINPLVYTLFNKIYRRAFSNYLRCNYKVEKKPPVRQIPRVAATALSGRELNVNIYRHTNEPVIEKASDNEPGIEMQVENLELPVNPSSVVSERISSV
Text: (§1) The specific ligand binding to the receptors is defined as the difference between the total binding and the non-specific binding determined in the presence of the excess of unlabelled ligand.
(§2) The results are expressed as a percent of control specific binding ((measured specific binding/control specific binding)×100) and as a percent inhibition of control specific binding (100−((measured specific binding/control specific binding)×100)) obtained in the presence of the test compounds. The specific ligand binding to the receptors is defined as the difference between the total binding and the nonspecific binding determined in the presence of an excess of unlabelled ligand. Scintillation counting was the method of detection of ligand binding. The IC50 values (concentration causing a half-maximal inhibition of control specific binding) were determined by non-linear regression analysis of the competition curves generated with mean replicate values using Hill equation curve fitting (Y=D+[(A−D)/(1+(C/C50)nH)], where Y=specific binding, D=minimum specific binding, A=maximum specific binding, C=compound concentration, C50=IC50, and nH=slope factor). This analysis was performed using a software developed at Cerep (Hill software) and validated by comparison with data generated by the commercial software SigmaPlot® 4.0 for Windows® (© 1997 by SPSS Inc.). The inhibition constants (Ki) were calculated using the Cheng Prusoff equation (Ki=IC50/(1+(L/KD)), where L=concentration of radioligand in the assay, and KD=affinity of the radioligand for the receptor). A scatchard plot was used to determine the Kd.
Experimental conditions for tests are given in Table 4, and results of tests for representative compounds of the invention are given in Table 5a and 5b (receptors 5-HT1A, 5-HT2A, 5-HT6 and 5-HT7) and in Table 6 (receptors 5-HT2C).

[6] = test system: α1 adrenergic receptors (rat cerebral cortex); assay: Radioligand binding assay, adrenergic α1 receptors; conditions: test compound 1×10^−6 M
Outline: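 Values derive from radioligand displacement, with non-specific binding defined by excess cold ligand and detection by scintillation. Hill-fit IC50s were converted to Ki via Cheng-Prusoff using Scatchard-derived Kd; percent inhibition of control specific binding also reported.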

[7] = biological target: T4, M3 muscarinic receptors (Homo sapiens, UniProt P20309); assay: Radioligand binding assay, muscarinic M3 receptors; conditions: test compound 1×10^−6 M
T4 construct: expressed in transfected cells; host or cells: CHO cells
Text: as §1, §2
Experimental conditions for tests are given in Table 10, and results of tests for representative compounds are given in Table 11.

[8] = biological target: T5, H1 histaminergic receptors (Homo sapiens, UniProt P35367); assay: Radioligand binding assay, histaminergic H1 receptors; conditions: human recombinant (HEK-293 cells), [3H]pyrilamine 1 nM
T5 construct: expressed in transfected cells; host or cells: HEK-293 cells
Text: as §1, §2
Experimental conditions for tests are given in Table 14, and results of tests for representative compounds are presented in Table 15.

[9] = binding assay, test compound 1×10^−6 M
[10] = binding assay result in %, Table 5a

T2 sequence (P28223 whole entry): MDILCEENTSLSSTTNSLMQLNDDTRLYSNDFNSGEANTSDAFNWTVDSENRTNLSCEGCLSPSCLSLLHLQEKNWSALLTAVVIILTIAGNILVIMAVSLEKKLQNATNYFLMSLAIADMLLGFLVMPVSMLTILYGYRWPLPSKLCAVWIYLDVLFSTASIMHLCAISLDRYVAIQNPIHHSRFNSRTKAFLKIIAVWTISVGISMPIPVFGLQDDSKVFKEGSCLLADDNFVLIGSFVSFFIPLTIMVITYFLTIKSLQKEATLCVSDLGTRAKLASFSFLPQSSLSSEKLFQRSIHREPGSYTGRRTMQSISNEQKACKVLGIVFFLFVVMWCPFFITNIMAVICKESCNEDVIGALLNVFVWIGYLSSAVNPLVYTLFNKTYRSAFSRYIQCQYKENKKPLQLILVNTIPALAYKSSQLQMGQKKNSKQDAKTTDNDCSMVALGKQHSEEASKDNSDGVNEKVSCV
T4 sequence (P20309 whole entry): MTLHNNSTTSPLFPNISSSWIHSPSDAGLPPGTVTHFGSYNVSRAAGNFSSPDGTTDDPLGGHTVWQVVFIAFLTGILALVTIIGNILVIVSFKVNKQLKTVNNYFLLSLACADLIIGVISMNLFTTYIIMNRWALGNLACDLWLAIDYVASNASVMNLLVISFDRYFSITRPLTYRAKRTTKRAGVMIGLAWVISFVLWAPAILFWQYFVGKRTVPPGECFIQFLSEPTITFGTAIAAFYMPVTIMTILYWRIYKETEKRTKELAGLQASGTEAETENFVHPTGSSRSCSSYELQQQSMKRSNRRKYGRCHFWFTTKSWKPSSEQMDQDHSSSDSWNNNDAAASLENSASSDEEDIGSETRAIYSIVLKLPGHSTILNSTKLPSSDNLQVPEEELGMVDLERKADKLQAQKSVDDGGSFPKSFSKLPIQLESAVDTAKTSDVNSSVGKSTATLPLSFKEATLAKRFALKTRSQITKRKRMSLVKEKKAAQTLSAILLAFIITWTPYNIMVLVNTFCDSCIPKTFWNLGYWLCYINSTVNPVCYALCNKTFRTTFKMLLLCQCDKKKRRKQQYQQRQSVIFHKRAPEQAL
T5 sequence (P35367 whole entry): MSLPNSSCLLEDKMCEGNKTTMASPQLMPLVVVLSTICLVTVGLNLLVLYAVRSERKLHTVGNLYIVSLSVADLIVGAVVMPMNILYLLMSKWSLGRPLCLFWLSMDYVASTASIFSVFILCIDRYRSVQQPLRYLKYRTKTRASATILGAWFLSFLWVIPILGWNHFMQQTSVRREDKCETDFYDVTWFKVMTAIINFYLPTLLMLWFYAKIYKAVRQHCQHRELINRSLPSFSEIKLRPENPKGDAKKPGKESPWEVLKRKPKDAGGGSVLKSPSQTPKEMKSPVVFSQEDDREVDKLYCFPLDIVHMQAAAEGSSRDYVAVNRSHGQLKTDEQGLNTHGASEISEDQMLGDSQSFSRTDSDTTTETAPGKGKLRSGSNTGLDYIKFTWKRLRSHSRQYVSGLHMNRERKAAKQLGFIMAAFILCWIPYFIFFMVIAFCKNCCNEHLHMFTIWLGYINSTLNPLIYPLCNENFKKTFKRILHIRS
dopaminergic receptors D2, sequence (P14416 whole entry): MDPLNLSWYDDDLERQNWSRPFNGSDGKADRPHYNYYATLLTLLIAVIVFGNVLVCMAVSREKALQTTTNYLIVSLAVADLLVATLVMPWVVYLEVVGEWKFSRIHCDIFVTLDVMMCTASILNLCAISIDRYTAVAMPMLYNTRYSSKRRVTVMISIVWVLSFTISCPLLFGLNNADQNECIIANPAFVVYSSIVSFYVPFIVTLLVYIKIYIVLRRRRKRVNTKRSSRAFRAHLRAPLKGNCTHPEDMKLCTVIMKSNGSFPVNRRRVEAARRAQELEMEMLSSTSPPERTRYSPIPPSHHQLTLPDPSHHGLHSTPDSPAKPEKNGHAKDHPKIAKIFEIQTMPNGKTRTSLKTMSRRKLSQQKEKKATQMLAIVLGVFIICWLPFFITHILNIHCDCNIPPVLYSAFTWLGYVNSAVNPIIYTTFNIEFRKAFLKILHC
dopaminergic receptors D3, sequence (P35462 whole entry): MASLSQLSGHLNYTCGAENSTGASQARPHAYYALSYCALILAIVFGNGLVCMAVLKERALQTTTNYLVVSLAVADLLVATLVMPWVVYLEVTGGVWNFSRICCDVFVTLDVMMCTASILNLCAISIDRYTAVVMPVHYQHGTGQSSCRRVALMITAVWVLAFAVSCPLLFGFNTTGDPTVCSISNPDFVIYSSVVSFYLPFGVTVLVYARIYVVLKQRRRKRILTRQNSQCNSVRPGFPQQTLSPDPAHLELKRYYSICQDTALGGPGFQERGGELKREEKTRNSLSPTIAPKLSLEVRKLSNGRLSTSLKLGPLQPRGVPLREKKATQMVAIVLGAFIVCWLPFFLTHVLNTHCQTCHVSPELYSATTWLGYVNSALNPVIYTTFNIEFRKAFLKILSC

SMILES | inhibition at 1 µM [1, 9] | inhibition at 1 µM [2] | inhibition at 1 µM [3] | inhibition at 1 µM [4, 10] | inhibition at 1 µM [5] | α1 [%] [6] | inhibition at 1 µM [7] | inhibition at 1 µM [8] | Ki [1] | Ki [4] | D2 [%] [1, 9] | D3 [%] [2] | 5-HT1A [%] [3] | 5-HT2A [%] [4, 10]
O=S(=O)(NCC1CCN(CCOc2cccc3c2OCCO3)C1)c1ccc(Br)cc1 (stereo not shown) [Compound 305, 4-Bromo-N-[[1-[2-(2,3-dihydro-1,4-benzodioxin-5-yloxy)ethyl]pyrrolidin-3-yl]methyl]benzenesulphonamide] | 57% | 48% | 101% | 93% | 59% | 84% | 11% | 54% |  |  |  |  |  | 
Cc1c(S(=O)(=O)N[C@H]2CCN(CCCc3noc4cc(F)ccc34)C2)sc2ccc(F)cc12 [Compound 203, 5-Fluoro-N-[(3S)-1-[3-(6-fluoro-1,2-benzoxazol-3-yl)propyl]pyrrolidin-3-yl]-3-methyl-benzothiophene-2-sulphonamide] | 101% | 95% | 60% | 99% | 90% | 91% | 12% | 67% | 0.9 nM | 0.7 nM |  |  |  | 
O=S(=O)(NCC1CCN(CCOc2cccc3c2OCCO3)C1)c1ccc(F)c(Cl)c1 (stereo not shown) [Compound 317, 3-Chloro-N-[[1-[2-(2,3-dihydro-1,4-benzodioxin-5-yloxy)ethyl]pyrrolidin-3-yl]methyl]-4-fluorobenzenesulphonamide] | 53% | 49% | 100% | 72% | 45% | 84% | 8% | 47% |  |  |  |  |  | 
O=S(=O)(N[C@H]1CCN(CCCc2noc3cc(F)ccc23)C1)c1ccc2cc(Cl)ccc2c1 [Compound 201, 6-Chloro-N-[(3S)-1-[3-(6-fluoro-1,2-benzoxazol-3-yl)propyl]pyrrolidin-3-yl]naphthalene-2-sulphonamide] | 99% | 84% | 32% | 98% | 72% | 82% | 9% | 64% | 15 nM | 7 nM |  |  |  | 
O=S(=O)(N[C@@H]1CCN(CCCc2noc3cc(F)ccc23)C1)c1cc2ccccc2s1 [Compound 196, N-[(3R)-1-[3-(6-Fluoro-1,2-benzoxazol-3-yl)propyl]pyrrolidin-3-yl]benzo-thiophene-2-sulphonamide] | 100% | 94% | 54% | 100% | 86% | 95% | 11% | 84% | 0.8 nM | 0.4 nM |  |  |  | 
O=S(=O)(NCC1CN(CCCc2noc3cc(F)ccc23)C1)c1cc2ccccc2s1 [Compound 127, N-[[1-[3-(6-Fluoro-1,2-benzoxazol-3-yl)propyl]azetidin-3-yl]methyl]benzo-thiophene-2-sulphonamide] |  |  |  |  | 84% | 93% | 1% | 54% | 22 nM | 4.2 nM | 95% | 79% | 71% | 99%
O=S(=O)(NCC1CCN(CCOc2cccc3c2OCCO3)C1)c1ccc(F)cc1 (stereo not shown) [Compound 300, N-[[1-[2-(2,3-Dihydro-1,4-benzodioxin-5-yloxy)ethyl]pyrrolidin-3-yl]-methyl]-4-fluoro-benzenesulphonamide] | 35% | 30% | 99% | 72% | 34% | 83% | -2% | 28% |  |  |  |  |  | 
